# Test system: SARS-CoV-2 strain USA-WA1/2020
# Assay: microbe, parasite or virus in culture
# Format: cell-based
# Details: Severe acute respiratory syndrome coronavirus 2, HeLa-ACE2, 24 h, HeLa-ACE2 cells, SARS-CoV-2 infection, 24 h; read-out: EC50, uM (Hela)
row,SMILES,EC50
1,"CC1(C)[C@@H]2[C@@H](C(=O)N[C@@H](C[C@@H]3CCNC3=O)C(=O)COC(F)(F)F)N(C(=O)[C@@H](O)c3ccccc3F)C[C@@H]21 [Compound 411, (1R,2S,5S)-3-((S)-2-(2-fluorophenyl)-2-hydroxyacetyl)-6,6-dimethyl-N-((S)-3-oxo-1-((S)-2-oxopyrrolidin-3-yl)-4-(trifluoromethoxy)butan-2-yl)-3-azabicyclo-[3.1.0]hexane-2-carboxamide]",< 0.05 µM
2,"O=C1NCC[C@H]1C[C@H](NC(=O)[C@@H]1CC2(CC2)CN1C(=O)[C@H](O)c1ccccc1)C(=O)COC(F)(F)F [Compound 412, (S)-5-((R)-2-hydroxy-2-phenylacetyl)-N-((S)-3-oxo-1-((S)-2-oxopyrrolidin-3-yl)-4-(trifluoromethoxy)butan-2-yl)-5-azaspiro[2.4]-heptane-6-carboxamide]",0.05 to 0.2 µM
3,"CC1(C)[C@@H]2[C@@H](C(=O)N[C@@H](C[C@@H]3CCNC3=O)C(=O)COC(F)(F)F)N(C(=O)[C@H](O)c3ccccc3)C[C@@H]21 [Compound 413, (1R,2S,5S)-3-((R)-2-hydroxy-2-phenylacetyl)-6,6-dimethyl-N-((S)-3-oxo-1-((S)-2-oxopyrrolidin-3-yl)-4-(trifluoromethoxy)butan-2-yl)-3-azabicyclo[3.1.0]-hexane-2-carboxamide]",< 0.05 µM
4,"O=C1NCC[C@H]1C[C@H](NC(=O)[C@@H]1[C@H]2CCC[C@H]2CN1C(=O)[C@H](O)c1ccccc1)C(=O)COC(F)(F)F [Compound 414, (1S,3aR,6aS)-2-((R)-2-hydroxy-2-phenylacetyl)-N-((S)-3-oxo-1-((S)-2-oxopyrrolidin-3-yl)-4-(trifluoromethoxy)butan-2-yl)octahydrocyclo-penta[c]pyrrole-1-carboxamide]",< 0.05 µM
5,"O=C1NCC[C@H]1C[C@H](NC(=O)[C@@H]1CC2(CC2)CN1C(=O)[C@@H](O)c1ccccc1)C(=O)COC(F)(F)F [Compound 415, (S)-5-((S)-2-hydroxy-2-phenylacetyl)-N-((S)-3-oxo-1-((S)-2-oxopyrrolidin-3-yl)-4-(trifluoromethoxy)butan-2-yl)-5-azaspiro[2.4]heptane-6-carboxamide]",0.05 to 0.2 µM
6,"CC1(C)[C@@H]2[C@@H](C(=O)N[C@@H](C[C@@H]3CCNC3=O)C(=O)COC(F)(F)F)N(C(=O)[C@@H](O)c3ccccc3)C[C@@H]21 [Compound 416, (1R,2S,5S)-3-((S)-2-hydroxy-2-phenylacetyl)-6,6-dimethyl-N—((S)-3-oxo-1-((S)-2-oxopyrrolidin-3-yl)-4-(trifluoromethoxy)butan-2-yl)-3-azabicyclo[3.1.0]hexane-2-carboxamide]",< 0.05 µM
7,"O=C1NCC[C@H]1C[C@H](NC(=O)[C@@H]1[C@H]2CCC[C@H]2CN1C(=O)[C@@H](O)c1ccccc1)C(=O)COC(F)(F)F [Compound 417, (1S,3aR,6aS)-2-((S)-2-hydroxy-2-phenylacetyl)-N-((S)-3-oxo-1-((S)-2-oxopyrrolidin-3-yl)-4-(trifluoromethoxy)butan-2-yl)octahydrocyclo-penta[c]pyrrole-1-carboxamide]",< 0.05 µM
8,"O=C1NCC[C@H]1C[C@H](NC(=O)[C@@H]1CC2(CC2)CN1C(=O)C(O)c1ccccn1)C(=O)COC(F)(F)F (stereo partly drawn) [Compound 418, (6S)-5-(2-hydroxy-2-(pyridin-2-yl)acetyl)-N-((S)-3-oxo-1-((S)-2-oxopyrrolidin-3-yl)-4-(trifluoromethoxy)butan-2-yl)-5-azaspiro[2.4]heptane-6-carboxamide]",0.05 to 0.2 µM
9,"O=C1NCC[C@H]1C[C@H](NC(=O)[C@@H]1CC2(CC2)CN1C(=O)C(O)c1cccnc1)C(=O)COC(F)(F)F (stereo partly drawn) [Compound 419, (6S)-5-(2-hydroxy-2-(pyridin-3-yl)acetyl)-N-((S)-3-oxo-1-((S)-2-oxopyrrolidin-3-yl)-4-(trifluoromethoxy)butan-2-yl)-5-azaspiro[2.4]heptane-6-carboxamide]",0.5 to 1 µM
10,"O=C1NCC[C@H]1C[C@H](NC(=O)[C@@H]1CC2(CC2)CN1C(=O)C1(O)CC1)C(=O)COC(F)(F)F [Compound 420, (S)-5-(l-hydroxycyclopropane-1-carbonyl)-N-((S)-3-oxo-1-((S)-2-oxopyrrolidin-3-yl)-4-(trifluoromethoxy)butan-2-yl)-5-azaspiro[2.4]heptane-6-carboxamide]",0.05 to 0.2 µM
11,"O=C1NCC[C@H]1C[C@H](NC(=O)[C@@H]1CC2(CC2)CN1C(=O)C1(O)CCC(F)(F)CC1)C(=O)COC(F)(F)F [Compound 421, (S)-5-(4,4-difluoro-1-hydroxycyclohexane-1-carbonyl)-N—((S)-3-oxo-1-((S)-2-oxopyrrolidin-3-yl)-4-(trifluoromethoxy)butan-2-yl)-5-azaspiro[2.4]heptane-6-carboxamide]",< 0.05 µM
12,"O=C1NCC[C@H]1C[C@H](NC(=O)[C@@H]1CC2(CC2)CN1C(=O)C1(O)CCC1)C(=O)COC(F)(F)F [Compound 422, (S)-5-(1-hydroxycyclobutane-1-carbonyl)-N-((S)-3-oxo-1-((S)-2-oxo-pyrrolidin-3-yl)-4-(trifluoromethoxy)butan-2-yl)-5-azaspiro[2.4]heptane-6-carboxamide]",0.05 to 0.2 µM
13,"O=C1NCC[C@H]1C[C@H](NC(=O)[C@@H]1CC2(CC2)CN1C(=O)C1(O)CCCC1)C(=O)COC(F)(F)F [Compound 423, (S)-5-(l-hydroxycyclopentane-1-carbonyl)-N-((S)-3-oxo-1-((S)-2-oxopyrrolidin-3-yl)-4-(trifluoromethoxy)butan-2-yl)-5-azaspiro[2.4]heptane-6-carboxamide]",0.05 to 0.2 µM
14,"O=C1NCC[C@H]1C[C@H](NC(=O)[C@@H]1CC2(CC2)CN1C(=O)C1(O)CCCCC1)C(=O)COC(F)(F)F [Compound 424, (S)-5-(l-hydroxycyclohexane-1-carbonyl)-N-((S)-3-oxo-1-((S)-2-oxopyrrolidin-3-yl)-4-(trifluoromethoxy)butan-2-yl)-5-azaspiro[2.4]heptane-6-carboxamide]",0.05 to 0.2 µM
15,"CCC[C@@H](O)C(=O)N1C[C@@H]2CCC[C@@H]2[C@H]1C(=O)N[C@@H](C[C@@H]1CCNC1=O)C(=O)COC(F)(F)F [Compound 425, (1S,3aR,6aS)-2-((R)-2-hydroxypentanoyl)-N-((S)-3-oxo-1-((S)-2-oxopyrrolidin-3-yl)-4-(trifluoromethoxy)butan-2-yl)octahydrocyclo-penta[c]pyrrole-1-carboxamide]",0.05 to 0.2 µM
16,"C[C@@H](C[C@@H](O)C(=O)N1CC2(CC2)C[C@H]1C(=O)N[C@@H](C[C@@H]1CCNC1=O)C(=O)COC(F)(F)F)C(F)(F)F [Compound 427, (S)-N-((S)-3-oxo-1-((S)-2-oxopyrrolidin-3-yl)-4-(trifluoromethoxy)butan-2-yl)-5-((2R,4S)-5,5,5-trifluoro-2-hydroxy-4-methylpentanoyl)-5-azaspiro[2.4]heptane-6-carboxamide]",< 0.05 µM
17,"CC(C)CCC(=O)N1CC2(CC2)C[C@H]1C(=O)N[C@@H](C[C@@H]1CCNC1=O)C(=O)COC(F)(F)F [Compound 429, (S)-5-(4-methylpentanoyl)-N—((S)-3-oxo-1-((S)-2-oxopyrrolidin-3-yl)-4-(trifluoromethoxy)butan-2-yl)-5-azaspiro[2.4]heptane-6-carboxamide]",< 0.05 µM

# Reference: patent US11708348B2, “Protease inhibitors for treatment of coronavirus infections” (The Scripps Research Institute, priority 2021, dated 2023)
